In PubChem BioAssay (NCI):
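How tested: cells in 96-well plates exposed to compound for 48 hours at five concentrations. At the GI50, growth is halved. At the TGI there is no net growth.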

Columns and labels:
Test in all cases: inhibition of tumour cell growth, NCI panel, 48 h
ACHN renal = system: ACHN renal
MDA-MB-231 breast = system: MDA-MB-231 breast
LOX IMVI melanoma = system: LOX IMVI melanoma
SK-MEL-28 melanoma = system: SK-MEL-28 melanoma
M14 melanoma = system: M14 melanoma
CCRF-CEM leukemia = system: CCRF-CEM leukemia
KM12 colon = system: KM12 colon
MCF7 breast = system: MCF7 breast
RPMI-8226 leukemia = system: RPMI-8226 leukemia
OVCAR-5 ovarian = system: OVCAR-5 ovarian

SMILES: COc1cc(/C=C2\CN(S(=O)(=O)c3ccc(C)cc3)C/C(=C\c3cc(CN4CCCC4)c(O)c(OC)c3)C2=O)cc(CN2CCCC2)c1O
- GI50 (ACHN renal): 1.38 µM
- TGI (ACHN renal): 2.71 µM
- GI50 (MDA-MB-231 breast): 1.8 µM
- TGI (MDA-MB-231 breast): 3.53 µM
- GI50 (LOX IMVI melanoma): 0.649 µM
- TGI (LOX IMVI melanoma): 2.02 µM
- GI50 (SK-MEL-28 melanoma): 1.92 µM
- TGI (SK-MEL-28 melanoma): 3.51 µM
- GI50 (M14 melanoma): 1.55 µM
- TGI (M14 melanoma): 3.17 µM
- GI50 (CCRF-CEM leukemia): 0.0535 µM
- TGI (CCRF-CEM leukemia): 3.74 µM
- GI50 (KM12 colon): 1.23 µM
- TGI (KM12 colon): 2.56 µM
- GI50 (MCF7 breast): 0.967 µM
- TGI (MCF7 breast): 3.93 µM
- GI50 (RPMI-8226 leukemia): 1.14 µM
- TGI (RPMI-8226 leukemia): 3.17 µM
- GI50 (OVCAR-5 ovarian): 2.27 µM
- TGI (OVCAR-5 ovarian): 3.84 µM
